What was measured:
[1] = tested on: lung epithelial cell line Mv1Lu; test: Cellular assay for TGF-beta receptor I kinase inhibitors: elimination of TGF-beta-mediated growth inhibition (example 13); assay type: cell-based; details: 48 h; Mv1Lu cells, 1 ng/ml TGF-beta, 0.5% FCS, two days, Crystal Violet staining; read-out: TβR activity (example 13)
Procedure: Cellular Assay for Testing TGF-Beta Receptor I Kinase Inhibitors
As an example, the ability of the inhibitors to eliminate TGF-beta-mediated growth inhibition was tested. Cells of the lung epithelial cell line Mv1Lu were sown in a defined cell density in a 96-well microtiter plate and cultivated overnight under standard conditions. Next day, the medium was replaced by medium which comprises 0.5% of FCS and 1 ng/ml of TGF-beta, and the test substances were added in defined concentrations, generally in the form of dilution series with 5 fold steps. The concentration of the solvent DMSO was constant at 0.5%. After a further two days, Crystal Violet staining of the cells was carried out. After extraction of the Crystal Violet from the fixed cells, the absorption was measured spectrophotometrically at 550 nm. It could be used as a quantitative measure of the adherent cells present and thus of the cell proliferation during the culture.

[2] = biological target: T1, GST-ALK5 (Homo sapiens, UniProt P36897); test: In-vitro (enzyme) kinase assay, 384-well flashplate (example 14); assay type: biochemical; details: GST-ALK5, GST-SMAD2 substrate, 33P-ATP flashplate, 30° C. 45 min; IC50 classes; read-out: TβR activity (example 14)
T1 sequence (P36897 34-503): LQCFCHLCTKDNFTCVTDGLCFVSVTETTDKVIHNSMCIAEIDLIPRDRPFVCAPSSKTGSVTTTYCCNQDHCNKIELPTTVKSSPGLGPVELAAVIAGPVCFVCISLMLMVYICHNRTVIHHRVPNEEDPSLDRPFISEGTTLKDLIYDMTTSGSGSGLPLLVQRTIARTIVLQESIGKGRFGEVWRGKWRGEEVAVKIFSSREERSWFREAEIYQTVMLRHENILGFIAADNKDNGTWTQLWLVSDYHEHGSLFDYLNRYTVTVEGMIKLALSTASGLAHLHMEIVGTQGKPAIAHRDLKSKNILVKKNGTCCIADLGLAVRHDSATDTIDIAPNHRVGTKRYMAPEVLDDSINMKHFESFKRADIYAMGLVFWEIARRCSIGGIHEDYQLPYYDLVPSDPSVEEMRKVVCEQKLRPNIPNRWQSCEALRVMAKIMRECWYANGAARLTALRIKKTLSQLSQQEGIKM
Procedure: In-Vitro (Enzyme) Assay for Determination of the Efficacy of Inhibitors of the Inhibition of TGF-Beta-Mediated Effects
The kinase assay was carried out as 384-well flashplate assay. 31.2 nM of GST-ALK5, 439 nM of GST-SMAD2 and 3 mM of ATP (with 0.3 μCi of ^33P-ATP/well) were incubated in a total volume of 35 μl (20 mM of HEPES, 10 mM of MgCl2, 5 mM of MnCl2, 1 mM of DTT, 0.1% of BSA, pH 7.4) without or with test substance (5-10 concentrations) at 30° C. for 45 min. The reaction was stopped using 25 μl of 200 mM EDTA solution, filtered with suction at room temperature after 30 min, and the wells were washed with 3 times 100 μl of 0.9% NaCl solution. Radioactivity was measured in the TopCount. The IC50 values were calculated using RS1. Above and below, all temperatures were indicated in ° C.

Compound	IC50 [1] [µM]	IC50 [2] [µM]
Cc1cccc(-c2cc(Nc3ccncc3CO)c3cccnc3n2)n1 [compound 81]	0.1 to 1	< 0.1
Fc1ccc(C(F)(F)F)cc1-c1cc(Nc2ccncc2)c2cccnc2n1 [compound 16]		< 0.1
Cc1cccc(-c2cc(-n3nc(C)c4cnccc43)c3cccnc3n2)n1 [compound 77]	1 to 10	< 0.1
Cc1cccc(-c2cc(-n3ccc4cncnc43)c3cccnc3n2)n1 [compound 59]		0.1 to 1
Fc1cc(F)c(-c2cc(Nc3ccncn3)c3cccnc3n2)cc1F [compound 50]		< 0.1
COC(=O)c1cc(Nc2cc(-c3cc(Cl)ccc3F)nc3ncccc23)ccn1 [compound 48]		< 0.1
Fc1ccc(F)c(-c2cc(-n3ccc4cnccc43)c3cccnc3n2)c1 [compound 129]	0.1 to 1	< 0.1
CN(C)CCOc1cnccc1Nc1cc(-c2cc(Cl)ccc2F)nc2ncccc12 [compound 23]		< 0.1
Fc1ccc(Cl)cc1-c1cc(Nc2ccnc(Cl)c2)c2cccnc2n1 [compound 62]		< 0.1
O=c1[nH]c2cnccc2n1-c1cc(-c2cc(Cl)ccc2F)nc2ncccc12 [compound 29]		< 0.1
Fc1ccccc1-c1cc(Nc2ccncc2)c2cccnc2n1 [compound 10]		< 0.1
Cc1nn(-c2cc(-c3cc(Cl)ccc3F)nc3ncccc23)c2ccncc12 [compound 71]		< 0.1
Fc1ccc(C(F)(F)F)cc1-c1cc(Nc2ccncn2)c2cccnc2n1 [compound 21]		< 0.1
Fc1ccc(Cl)cc1-c1cc(Sc2ccncc2)c2cccnc2n1 [compound 58]		< 0.1
Fc1ccc(C(F)(F)F)cc1-c1cc(Nc2ncncn2)c2cccnc2n1 [compound 44]		< 0.1
CNC(=O)c1cc(Nc2cc(-c3cc(Cl)ccc3F)nc3ncccc23)ccn1 [compound 53]		< 0.1
O=C(O)c1cc(Nc2cc(-c3cc(Cl)ccc3F)nc3ncccc23)ccn1 [compound 68]		1 to 10
Nc1cnccc1Nc1cc(-c2cc(Cl)ccc2F)nc2ncccc12 [compound 22]		< 0.1
CCNC(=O)c1cnccc1Nc1cc(-c2cccc(C)n2)nc2ncccc12 [compound 60]		< 0.1
CN(C)CCCOc1cnccc1Nc1cc(-c2cc(Cl)ccc2F)nc2ncccc12 [compound 33]		< 0.1
Fc1ccc(Cl)cc1-c1cc(Nc2ncncn2)c2cccnc2n1 [compound 18]		< 0.1
CC(C)C(=O)Nc1cc(Nc2cc(-c3cc(Cl)ccc3F)nc3ncccc23)ccn1 [compound 70]		< 0.1
COCCOc1cnccc1Nc1cc(-c2cc(C(F)(F)F)ccc2F)nc2ncccc12 [compound 26]		< 0.1
Fc1ccc(Cl)cc1-c1cc(Nc2ccncn2)c2cccnc2n1 [compound 05]		< 0.1

Compound	IC50 [1] [µM]	IC50 [2] [µM]
CC(C)(C)OC(=O)Nc1nccc(Nc2cc(-c3cc(Cl)ccc3F)nc3ncccc23)n1 [compound 51]		< 0.1
CC(=O)Nc1cc(Nc2cc(-c3cc(Cl)ccc3F)nc3ncccc23)ccn1 [compound 67]		< 0.1
c1ccc(-c2cc(Nc3ccncc3)c3cccnc3n2)nc1 [compound 25]		< 0.1
c1cnc2nc(-c3cn[nH]c3)cc(Nc3ccncc3)c2c1 [compound 31]		0.1 to 1
Fc1ccc(C(F)(F)F)cc1-c1cc(-n2ccc3cnccc32)c2cccnc2n1 [compound 30]		< 0.1
Nc1nccc(Nc2cc(-c3cc(Cl)ccc3F)nc3ncccc23)n1 [compound 52]		< 0.1
Cc1cccc(-c2cc(-n3ccc4cnccc43)c3cccnc3n2)n1 [compound 57]		< 0.1
Clc1cccc(-c2cc(Nc3ccncc3)c3cccnc3n2)c1 [compound 11]		< 0.1
Fc1cc(F)c(-c2cc(Nc3ccncc3)c3cccnc3n2)cc1F [compound 43]		< 0.1
CN1CCN(c2cc(Nc3cc(-c4cc(Cl)ccc4F)nc4ncccc34)ccn2)CC1 [compound 08]		1 to 10
CN1CCC(COc2cnccc2Nc2cc(-c3cc(Cl)ccc3F)nc3ncccc23)CC1 [compound 47]		< 0.1
CNC(=O)c1cnccc1Nc1cc(-c2cc(Cl)ccc2F)nc2ncccc12 [compound 42]		< 0.1
Cc1cccc(-c2cc(Nc3ccncc3)c3cccnc3n2)n1 [compound 03]		< 0.1
N#Cc1cncnc1Nc1cc(-c2cc(Cl)ccc2F)nc2ncccc12 [compound 41]		< 0.1
Fc1ccc(Cl)cc1-c1cc(-n2ccc3cncnc32)c2cccnc2n1 [compound 54]		< 0.1
Nc1cc(Nc2cc(-c3cc(Cl)ccc3F)nc3ncccc23)ncn1 [compound 02]		< 0.1
c1cnc2nc(-c3cnccn3)cc(Nc3ccncc3)c2c1 [compound 24]		1 to 10
Nc1cc(Nc2cc(-c3cc(C(F)(F)F)ccc3F)nc3ncccc23)ncn1 [compound 32]		< 0.1
OCc1cnccc1Nc1cc(-c2cc(Cl)ccc2F)nc2ncccc12 [compound 20]		< 0.1
Fc1ccccc1-c1cc(Nc2ccncn2)c2cccnc2n1 [compound 17]		< 0.1
Fc1ccc(F)c(-c2cc(Nc3ccncc3)c3cccnc3n2)c1 [compound 13]		< 0.1
CN1CCN(c2ccc(Nc3cc(Nc4cc(-c5cc(Cl)ccc5F)nc5ncccc45)ccn3)cc2)CC1 [compound 27]		0.1 to 1
Cn1nccc1-c1cc(Nc2ccncc2)c2cccnc2n1 [compound 36]		1 to 10
Fc1ccc(OC(F)(F)F)cc1-c1cc(Nc2ccncc2)c2cccnc2n1 [compound 38]		< 0.1

Compound	IC50 [1] [µM]	IC50 [2] [µM]
Fc1ccc(Cl)cc1-c1cc(Nc2ccncc2OCCCN2CCOCC2)c2cccnc2n1 [compound 34]		< 0.1
N#Cc1cnccc1Nc1cc(-c2cc(Cl)ccc2F)nc2ncccc12 [compound 65]		< 0.1
Fc1ccc(Cl)cc1-c1cc(Nc2ccncc2)c2cccnc2n1 [compound 01]		< 0.1
Fc1ccc(Cl)cc1-c1cc(-n2ccc3cnccc32)c2cccnc2n1 [compound 14]		< 0.1
FC(F)(F)c1cccc(-c2cc(Nc3ccncc3)c3cccnc3n2)c1 [compound 12]		< 0.1
Fc1ccc(Cl)cc1-c1cc(Nc2ccnc(Nc3cc(-c4cc(Cl)ccc4F)nc4ncccc34)n2)c2cccnc2n1 [compound 39]		1 to 10
CCOc1cc(Nc2cc(-c3cc(Cl)ccc3F)nc3ncccc23)ccn1 [compound 07]		0.1 to 1
COC(=O)c1cnccc1Nc1cc(-c2cc(Cl)ccc2F)nc2ncccc12 [compound 40]		< 0.1
Cc1ccn(-c2cc(Nc3ccncc3)c3cccnc3n2)n1 [compound 28]		< 0.1
Cn1cc(-c2cc(Nc3ccncc3)c3cccnc3n2)cn1 [compound 19]		1 to 10
Cc1cccc(-c2cc(Nc3ccncn3)c3cccnc3n2)n1 [compound 49]		< 0.1
OCCOc1cnccc1Nc1cc(-c2cc(Cl)ccc2F)nc2ncccc12 [compound 09]		< 0.1
COCCOc1cnccc1Nc1cc(-c2cc(Cl)ccc2F)nc2ncccc12 [compound 15]		< 0.1
Cn1ccc(-c2cc(Nc3ccncc3)c3cccnc3n2)n1 [compound 35]		0.1 to 1
Fc1ccc(Cl)cc1-c1cc(Oc2ccncc2)c2cccnc2n1 [compound 56]		> 10
CCNCCOc1cnccc1Nc1cc(-c2cc(Cl)ccc2F)nc2ncccc12 [compound 46]		0.1 to 1
Fc1ccc(Cl)cc1-c1cc(Nc2ccncc2OCCN2CCOCC2)c2cccnc2n1 [compound 04]		0.1 to 1
Fc1ccc(-c2cc(Nc3ccncc3)c3cccnc3n2)cc1 [compound 06]		< 0.1
N#Cc1ccccc1-c1cc(Nc2ccncc2)c2cccnc2n1 [compound 61]		0.1 to 1
OCc1cnccc1Nc1cc(-c2cc(C(F)(F)F)ccc2F)nc2ncccc12 [compound 37]		< 0.1
CCN(CCOc1cnccc1Nc1cc(-c2cc(Cl)ccc2F)nc2ncccc12)C(=O)OC(C)(C)C [compound 45]		0.1 to 1
Cc1cccc(-c2cc(Nc3cc(N)ncn3)c3cccnc3n2)n1 [compound 55]		< 0.1
O=C(O)c1cnccc1Nc1cc(-c2cc(Cl)ccc2F)nc2ncccc12 [compound 63]		< 0.1

— patent US8815893B2, “Hetarylaminonaphthyridines” (Merck Patent GmbH, priority 2010, dated 2014)
